Data taken from ChEMBL document CHEMBL4304807, “Modulators of KEAP-1 Activity as Potential Therapies for the Treatment of Neurodegenerative Disorders” (ACS Med Chem Lett, 2019).

target: Kelch-like ECH-associated protein 1 (Homo sapiens, UniProt Q14145); assay: Inhibition of KEAP1 interaction with Nrf2 in human HEK293 cells transfected with ARE-LUC assessed as activation of Nrf2 signaling pathway measured after 18 hrs by steady-Glo luciferase assay; type: cell-based
Sequence (Q14145 whole entry): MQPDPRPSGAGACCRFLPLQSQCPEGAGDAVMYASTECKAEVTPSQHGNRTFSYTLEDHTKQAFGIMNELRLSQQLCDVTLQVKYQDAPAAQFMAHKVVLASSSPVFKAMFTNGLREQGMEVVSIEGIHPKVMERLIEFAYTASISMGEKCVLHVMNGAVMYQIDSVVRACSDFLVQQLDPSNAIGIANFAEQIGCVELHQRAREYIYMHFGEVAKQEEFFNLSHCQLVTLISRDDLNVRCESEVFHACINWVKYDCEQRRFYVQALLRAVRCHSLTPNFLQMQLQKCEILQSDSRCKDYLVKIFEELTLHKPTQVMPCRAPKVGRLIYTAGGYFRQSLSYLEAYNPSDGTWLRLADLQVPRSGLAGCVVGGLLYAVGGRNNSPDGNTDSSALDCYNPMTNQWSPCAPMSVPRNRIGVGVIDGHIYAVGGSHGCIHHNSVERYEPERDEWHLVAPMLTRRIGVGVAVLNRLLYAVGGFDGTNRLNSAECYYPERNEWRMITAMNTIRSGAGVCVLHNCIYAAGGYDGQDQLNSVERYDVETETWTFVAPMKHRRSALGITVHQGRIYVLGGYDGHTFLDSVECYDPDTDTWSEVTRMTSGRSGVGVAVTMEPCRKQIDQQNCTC

EC50 [nM]	Structure (SMILES)
7	COC1(c2ncc(F)cc2-c2cnc(C)s2)C=C(C#N)C(=O)C(C)(C)C1 (centres undefined)
8	COC1(c2ncc(F)cc2OC(F)F)C=C(C#N)C(=O)C(C)(C)C1 (centres undefined)
24	COC1(c2ncccc2C(F)(F)F)C=C(C#N)C(=O)C(C)(C)C1 (centres undefined)
18	COC1(c2ncc(F)cc2C(F)F)C=C(C#N)C(=O)C2(CC2)C1 (centres undefined)
